# Measurements: patent publication US7745443B2 (Sanofi-Aventis Deutschland GmbH, priority 2002, dated 2010)
# Target: binding of human von Willebrand factor to europium (Eu)-chelate-labeled chimeric GPIb-Fc protein (Homo sapiens, UniProt P04275+P07359)
# Test: Von Willebrand Factor-GPIb Binding Assay (Eu based, botrocetin-induced)
# Details: botrocetin-induced binding of Eu-chelate-labeled chimeric GPIb-Fc to immobilized human vWF; IC50 values as specified in the examples
# Method: Activity of compounds of the formula I was shown by an Eu based binding assay in which the binding of human von Willebrand factor to an europium (Eu)-chelate-labeled chimeric GPIb-Fc protein was induced by botrocetin. The preparation of the Eu-chelate-labeled chimeric GPIb-Fc protein is described in detail in a patent application (Fukuchi et al., EP1074564).
# A TBS (Tris buffered saline, 20 mM Tris-HCl (pH 7.4) and 0.15 M NaCl) (50 microl) containing human von Willebrand factor (2.5 microg/ml) was added to each well of 1 96-well plate, and the von Willebrand factor was immobilized as a solid phase overnight at 4 dec. Each well was washed once with TBS (150 microl) and blocked with TBS containing 5% BSA (bovine serum albumin) for about 3 hours. Each well of the plate was washed twice with TBS (150 microl), and then added with 25 microl of an assay buffer (Assay Buffer, 1244-106, produced by Wallac) with the compounds, further added with the assay buffer (25 microl) containing the europium (Eu)-chelate-labeled chimeric GPIb-Fc protein (100 ng/ml), labeled with Eu-N1-ITC (Eu-chelate of N^1-(p-isothiocyanatebenzyl)-diethlenetriamine-N^1,N^2,N^3,N^3-tetraacetic acid, 1244-302, produced by Wallac) and botrocetin (500 ng/ml), and left stand at room temperature for 2 hours. The preparation of the Eu-chelate-labeled chimeric GPIb-Fc protein is described in detail in a patent application (Fukuchi et al., EP1074564). Each well of the plate was washed 5 times with TBS (150 microl) containing 0.05% Tween-20, then added with 100 microl of a fluorescence enhancement buffer (Enhancement Solution, 1244-104, produced by Wallac), and shaken for 1 minute. Then, the amount of europium (Eu) was measured by using a 1420 ARVO multi-label counter (produced by Wallac, measurements time: 1 second).
# Sequence of binding of human von Willebrand factor to europium (Eu)-chelate-labeled chimeric GPIb-Fc protein (P04275 764-2813 limits assumed, change not shown): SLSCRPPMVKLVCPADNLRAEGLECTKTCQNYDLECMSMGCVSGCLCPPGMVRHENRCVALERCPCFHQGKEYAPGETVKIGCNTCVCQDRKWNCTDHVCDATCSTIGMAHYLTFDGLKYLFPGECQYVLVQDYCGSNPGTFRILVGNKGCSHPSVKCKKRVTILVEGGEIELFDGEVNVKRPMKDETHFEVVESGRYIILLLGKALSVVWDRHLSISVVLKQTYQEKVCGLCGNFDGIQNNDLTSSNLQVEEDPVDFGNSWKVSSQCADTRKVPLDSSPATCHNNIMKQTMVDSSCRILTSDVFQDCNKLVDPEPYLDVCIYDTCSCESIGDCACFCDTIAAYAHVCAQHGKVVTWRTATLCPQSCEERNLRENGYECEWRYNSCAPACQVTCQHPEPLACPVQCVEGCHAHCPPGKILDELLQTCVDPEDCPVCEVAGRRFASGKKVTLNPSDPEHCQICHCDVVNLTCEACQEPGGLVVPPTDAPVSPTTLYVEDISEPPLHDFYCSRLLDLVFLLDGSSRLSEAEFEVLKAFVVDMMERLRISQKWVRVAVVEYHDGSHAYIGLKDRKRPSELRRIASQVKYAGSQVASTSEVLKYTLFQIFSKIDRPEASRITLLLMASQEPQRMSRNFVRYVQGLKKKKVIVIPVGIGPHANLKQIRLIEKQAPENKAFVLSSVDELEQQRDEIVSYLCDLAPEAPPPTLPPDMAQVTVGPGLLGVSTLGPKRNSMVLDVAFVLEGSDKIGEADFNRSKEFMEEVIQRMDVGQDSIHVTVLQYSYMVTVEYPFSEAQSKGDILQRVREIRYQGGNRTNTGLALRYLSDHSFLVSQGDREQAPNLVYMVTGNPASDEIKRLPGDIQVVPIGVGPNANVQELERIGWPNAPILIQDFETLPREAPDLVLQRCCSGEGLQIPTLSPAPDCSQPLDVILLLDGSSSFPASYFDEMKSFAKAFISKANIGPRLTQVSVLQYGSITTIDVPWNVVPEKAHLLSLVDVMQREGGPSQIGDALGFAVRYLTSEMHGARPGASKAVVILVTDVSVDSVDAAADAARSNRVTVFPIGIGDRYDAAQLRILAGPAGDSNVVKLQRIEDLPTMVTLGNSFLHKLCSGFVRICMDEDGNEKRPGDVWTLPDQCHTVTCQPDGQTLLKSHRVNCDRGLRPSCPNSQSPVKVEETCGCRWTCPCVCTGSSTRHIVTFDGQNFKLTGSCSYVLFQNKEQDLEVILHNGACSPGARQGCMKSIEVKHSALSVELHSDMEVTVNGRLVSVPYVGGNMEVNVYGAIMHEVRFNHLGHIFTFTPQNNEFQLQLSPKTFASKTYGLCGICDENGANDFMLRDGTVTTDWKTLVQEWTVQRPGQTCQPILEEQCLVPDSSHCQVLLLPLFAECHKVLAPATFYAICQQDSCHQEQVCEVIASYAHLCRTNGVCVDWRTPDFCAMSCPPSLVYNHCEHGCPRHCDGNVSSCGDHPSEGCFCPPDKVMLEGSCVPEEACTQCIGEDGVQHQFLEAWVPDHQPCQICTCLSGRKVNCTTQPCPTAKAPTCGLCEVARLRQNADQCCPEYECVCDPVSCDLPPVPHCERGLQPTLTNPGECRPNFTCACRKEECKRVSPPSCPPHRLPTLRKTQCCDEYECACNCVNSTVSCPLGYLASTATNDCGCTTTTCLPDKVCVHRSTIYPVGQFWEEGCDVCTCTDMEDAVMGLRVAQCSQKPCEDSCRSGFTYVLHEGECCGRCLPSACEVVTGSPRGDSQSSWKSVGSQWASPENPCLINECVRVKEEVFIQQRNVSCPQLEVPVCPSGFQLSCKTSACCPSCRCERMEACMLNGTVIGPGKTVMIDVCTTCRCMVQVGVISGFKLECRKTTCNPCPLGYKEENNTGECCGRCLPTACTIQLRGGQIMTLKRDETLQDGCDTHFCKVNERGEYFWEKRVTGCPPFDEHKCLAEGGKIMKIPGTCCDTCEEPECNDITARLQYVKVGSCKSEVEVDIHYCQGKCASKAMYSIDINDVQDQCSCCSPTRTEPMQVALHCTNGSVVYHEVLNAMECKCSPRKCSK
# Sequence of binding of human von Willebrand factor to europium (Eu)-chelate-labeled chimeric GPIb-Fc protein (P07359 17-335 limits assumed, change not shown): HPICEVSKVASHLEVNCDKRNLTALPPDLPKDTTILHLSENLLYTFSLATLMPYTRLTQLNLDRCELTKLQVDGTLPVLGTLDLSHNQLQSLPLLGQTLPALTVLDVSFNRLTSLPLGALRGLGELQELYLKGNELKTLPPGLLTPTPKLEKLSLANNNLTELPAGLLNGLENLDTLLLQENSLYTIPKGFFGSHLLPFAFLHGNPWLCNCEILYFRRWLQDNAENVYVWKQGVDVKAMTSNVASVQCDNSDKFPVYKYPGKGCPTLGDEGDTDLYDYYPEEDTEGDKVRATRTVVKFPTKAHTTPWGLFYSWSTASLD
row,SMILES,IC50 [µM]
1,"COc1cc(NC(=O)c2ccc3[nH]c(C)nc3c2)ccc1NC(=O)c1ccc2nc(C)cc(N)c2c1 [Example 35, 4-Amino-N-(2-methoxy-4-{[(2-methyl-1H-benzimidazol-5-yl)carbonyl]amino}phenyl)-2-methyl-6-quinolinecarboxamide]",9.18
2,Cc1cc(N)c2cc(C(=O)Nc3ccc(NC(=O)c4ccc5nc(C)cc(N)c5c4)cc3)ccc2n1 [Example 36],1.57
3,"Cc1cc(N)c2cc(C(=O)Nc3ccc(CNc4ccc5cn[nH]c5c4)cc3)ccc2n1 [Example 37, 4-Amino-N-{4-[(1H-indazol-6-ylamino)methyl]phenyl}-2-methyl-6-quinolinecarboxamide]",2.56
4,"Cc1cc(N)c2cc(C(=O)NC3CCC(NC(=O)c4ccc5nc(N)sc5c4)CC3)ccc2n1 (centres unmarked) [Example 38, 4-Amino-N-(4-{[(2-amino-1,3-benzothiazol-6-yl)carbonyl]amino}cyclohexyl)-2-methyl-6-quinolinecarboxamide]",33.3
5,"Cc1cc(N)c2cc(C(=O)NC3CCC(NC(=O)c4ccc5nc(N)ccc5c4)CC3)ccc2n1 (centres unmarked) [Example 39, 4-Amino-N-(4-{[(2-amino-6-quinolinyl)carbonyl]amino}cyclohexyl)-2-methyl-6-quinolinecarboxamide]",28.5
